Experimental data reported in publication PMC8465942, “Cyano- and Ketone-Containing Selenoesters as Multi-Target Compounds against Resistant Cancers” (Cancers, 2021).
Entries after “also recorded” stand apart in the source; their conditions may differ. Read-outs that look alike come from different tables or passages of the source. Marks after values point to notes of the source that are not given here.

Experiments:
[1] = test system: Colo 320/MDR-LRP human colonic adenocarcinoma cell line; assay: Cytotoxicity (MTT) on resistant Colo 320 cells; assay type: cell-based; conditions: for IC50: Homo sapiens, read-out: Colo 320 (IC50 µM) Mean; for SI MRC-5/Colo 320: ratio IC50 non-tumour cells / IC50 cancer cells
From the text: Three cell lines have been used in this study: the doxorubicin-sensitive Colo 205 (CCL-222, ATCC, Manassas, VA, USA) human colonic adenocarcinoma cell line; the multidrug resistant Colo 320/MDR-LRP expressing P-gp (MDR1)-LRP (CCL-220.1, ATCC) human colonic adenocarcinoma cell line; and the MRC-5 human embryonal lung fibroblast cell line (CCL-171, ATCC). The colon adenocarcinoma cell lines were purchased from LGC Promochem (Teddington, UK), and the MRC-5 cell line was purchased from Sigma-Aldrich (Merck KGaA, Darmstadt, Germany). Their culture conditions are as follows: Colo 205 (CCL-222, ATCC) and Colo 320/MDR-LRP expressing P-gp (MDR1)-LRP (CCL-220.1, ATCC) human colon adenocarcinoma cell lines were cultured in RPMI 1640 medium, supplemented with 10% FBS, 2 mM L-glutamine, 1 mM Na-pyruvate, and […]. The cell lines were incubated at 37 °C, 5% CO2, and 95% air atmosphere. The semi-adherent human colon cancer cells were detached with a Trypsin-Versene (EDTA) solution for 5 min at 37 °C. MRC-5 human embryonal lung fibroblast cells were cultured in EMEM containing 4.5 g/L of glucose and supplemented with a non-essential amino acid mixture, a selection of vitamins, and 10% FBS. The cell lines were incubated at 37 °C, 5% CO2, and 95% air atmosphere.
The effects of increasing concentrations of the compounds on cell growth were tested in 96-well flat-bottomed microtiter plates. Moreover, 10^4 of human colonic adenocarcinoma cells in 100 μL of the medium (RPMI-1640) were added to each well, except for the medium control wells. The adherent human embryonic lung fibroblast cell line was seeded in the EMEM medium for 4 h before the assay. The two-fold serial dilutions of the compounds were made in a separate plate (0.19–100 μM), and then transferred to the plates containing the adherent corresponding cell line. Culture plates were incubated at 37 °C for 24 h. At the end of the incubation period, 20 μL of MTT (thiazolyl blue tetrazolium bromide) solution (from a 5 mg/mL stock solution) were added to each well. After incubation at 37 °C for 4 h, 100 μL of sodium dodecyl sulfate (SDS) solution (10% SDS in 0.01 M HCl) was added to each well, and the plates were further incubated at 37 °C overnight. Cell growth was determined by measuring the optical density (OD) at 540 nm (ref. 630 nm) with a Multiscan EX ELISA reader (Thermo Labsystems, Cheshire, WA, USA). Inhibition of cell growth was expressed as IC50 values, defined as the inhibitory dose that reduces the growth of the cells exposed to the tested compounds by 50%. IC50 values and the SD of triplicate experiments were calculated by using GraphPad Prism software version 5.00 for Windows, with a non-linear regression curve fit (GraphPad Software, San Diego, CA, USA; www.graphpad.com, accessed on 12 July 2021). Doxorubicin (from a 2 mg/mL stock solution, Teva Pharmaceuticals) was used as a positive control.
The selectivity indexes (SI) were calculated as the ratio of the IC50 value in the non-tumour cells and the IC50 in the cancer cell lines. The compound’s activity towards cancer cells is considered as strongly selective if the selectivity index (SI) value is higher than 6, moderately selective if 3 < SI < 6, slightly selective if 1 < SI < 3, and non-selective if SI is lower than 1 [16].

B16 (skin melanoma) = assay: Cytotoxicity on B16 cells; assay type: cell-based, murine; conditions: ratio IC50 non-tumour cells / IC50 cancer cells
[2] = test system: resistant Colo 320 colon adenocarcinoma cells expressing the ABCB1 transporter; assay: Checkerboard combination assay with doxorubicin; assay type: cell-based, human
Description: A checkerboard microplate method was applied to study the effect of drug interactions between the selenocompounds and the chemotherapeutic drug doxorubicin on resistant Colo 320 colon adenocarcinoma cells expressing the ABCB1 transporter. Results were expressed in terms of the combination index (CI) values at 50% growth inhibition (ED50), which were determined by using CompuSyn software to plot 4 or 5 data points for each ratio.
To perform the experiment, the dilutions of doxorubicin were made in a horizontal direction in 100 µL, and the dilutions of the Se-compounds were made vertically in the microtiter plate in a volume of 50 µL. The cells were re-suspended in the culture medium and distributed into each well in 50 µL portions containing 6000 cells. The plates were incubated for 72 h at 37 °C in a CO2 incubator. The cell growth rate was determined after MTT staining. At the end of the incubation period, 20 μL of MTT solution was added to each well. After incubation at 37 °C for 4 h, 100 μL of SDS was added to each well and the plates were further incubated at 37 °C overnight. The optical density (OD) was measured at 540/630 nm with the Multiscan EX ELISA reader.

[3] = in at least one of the ratios tested
[4] = ratio 0.6:1, starting conc. 5 µM
[5] = ratio 1.2:1, starting conc. 5 µM
[6] = ratio 2.4:1, starting conc. 5 µM
[7] = ratio 4.8:1, starting conc. 5 µM
[8] = ratio 9.6:1, starting conc. 5 µM
[9] = ratio 0.7:1, starting conc. 6 µM
[10] = ratio 1.4:1, starting conc. 6 µM
[11] = ratio 2.8:1, starting conc. 6 µM
[12] = ratio 5.6:1, starting conc. 6 µM
[13] = ratio 11.2:1, starting conc. 6 µM
[14] = ratio 22.4:1, starting conc. 6 µM

`CC(=O)C[Se]C(=O)c1cccs1` [K1, Se-(2-Oxopropyl) Thiophene-2-carboselenoate] was tested, and the IC50 ([1]; COLO 320, 24 h, MTT) was 1.47 µM, the “SI MRC-5/Colo 320” value [1] was 1.52 and the “SI MRC-5/B16” value (B16 (skin melanoma)) was 2.6. The Interaction with doxorubicin [2, 3] was “synergistic manner; also recorded: interact synergistically”, the “Type of Interaction” value [2, 4] was “Antagonism” and the “Type of Interaction” value [2, 5] was “Additive effect”. For the same molecule, the “Type of Interaction” value [2, 6] was “Additive effect”, the “Type of Interaction” value [2, 7] was “Slight synergism” and the “Type of Interaction” value [2, 8] was “Slight antagonism”.

In the case of `CC(=O)C[Se]C(=O)c1ccccc1F` [K2, Se-(2-Oxopropyl) 2-Fluorobenzoselenoate], the IC50 ([1]; COLO 320, 24 h, MTT) is reported as 2.38 µM, the “SI MRC-5/Colo 320” value [1] is reported as 1.06 and the “SI MRC-5/B16” value (B16 (skin melanoma)) is reported as 2.1. For the same molecule, the “Type of Interaction” value [2, 9] was “Antagonism”, the “Type of Interaction” value [2, 10] was “Antagonism” and the “Type of Interaction” value [2, 11] was “Slight antagonism”. For the same molecule, the “Type of Interaction” value [2, 12] was “Additive effect”, the “Type of Interaction” value [2, 13] was “Antagonism” and the “Type of Interaction” value [2, 14] was “Antagonism”.

`CC(=O)C[Se]C(=O)c1ccc(Br)cc1` [K3, Se-(2-Oxopropyl) 4-Bromobenzoselenoate] was tested, and the IC50 ([1]; COLO 320, 24 h) was 2.15 µM, the “SI MRC-5/Colo 320” value [1] was 1.33 and the “SI MRC-5/B16” value (B16 (skin melanoma)) was 1.3. For the same molecule, the Interaction with doxorubicin [2, 3] was “synergistic manner; also recorded: interact synergistically”, the “Type of Interaction” value [2, 9] was “Moderate antagonism” and the “Type of Interaction” value [2, 10] was “Synergism”. The “Type of Interaction” value [2, 11] was “Moderate synergism”, the “Type of Interaction” value [2, 12] was “Antagonism” and the “Type of Interaction” value [2, 13] was “Moderate antagonism”. The “Type of Interaction” value [2, 14] was “Antagonism”.

For `CC(=O)C[Se]C(=O)c1ccccc1C(F)(F)F` [K4, Se-(2-Oxopropyl) 2-(Trifluoromethyl)benzoselenoate], the IC50 ([1]; COLO 320, 24 h) was 1.48 µM, the “SI MRC-5/Colo 320” value [1] was 2.45 and the “SI MRC-5/B16” value (B16 (skin melanoma)) was 1.4. For the same molecule, the Interaction with doxorubicin [2, 3] was “synergistic manner; also recorded: interact synergistically”, the “Type of Interaction” value [2, 4] was “Synergism” and the “Type of Interaction” value [2, 5] was “Additive effect”. The “Type of Interaction” value [2, 6] was “Additive effect”, the “Type of Interaction” value [2, 7] was “Moderate synergism” and the “Type of Interaction” value [2, 8] was “Slight synergism”. For the same molecule, the “Type of Interaction” value ([2]; ratio 19.2:1, starting conc. 5 µM) was “Additive effect”.

With `CC(=O)C[Se]C(=O)c1cccc(C(F)(F)F)c1` [K5, Se-(2-Oxopropyl) 3-(Trifluoromethyl)benzoselenoate] the IC50 ([1]; COLO 320, 24 h, MTT) was 2.17 µM, the “SI MRC-5/Colo 320” value [1] was 1.43 and the “SI MRC-5/B16” value (B16 (skin melanoma)) was 2.8. For the same molecule, the Interaction with doxorubicin ([2]; in all ratios tested) was “synergistic interaction”, the Interaction with doxorubicin [2, 3] was “synergistic manner; also recorded: interact synergistically” and the “Type of Interaction” value [2, 9] was “Synergism”. The “Type of Interaction” value [2, 10] was “Moderate synergism”, the “Type of Interaction” value [2, 11] was “Synergism” and the “Type of Interaction” value [2, 12] was “Synergism”. The “Type of Interaction” value [2, 13] was “Synergism” and the “Type of Interaction” value [2, 14] was “Synergism”.

`CC(=O)C[Se]C(=O)c1ccc(F)c(Cl)c1` [K6, Se-(2-Oxopropyl) 3-Chloro-4-fluorobenzoselenoate] was tested, and the IC50 ([1]; COLO 320, 24 h, MTT) was 2.1 µM, the “SI MRC-5/Colo 320” value [1] was 1.72 and the “SI MRC-5/B16” value (B16 (skin melanoma)) was 2.8. The Interaction with doxorubicin ([2]; in all ratios tested) was “synergistic interaction”, the Interaction with doxorubicin [2, 3] was “synergistic manner; also recorded: interact synergistically” and the “Type of Interaction” value [2, 9] was “Synergism”. The “Type of Interaction” value [2, 10] was “Moderate synergism”, the “Type of Interaction” value [2, 11] was “Synergism” and the “Type of Interaction” value [2, 12] was “Synergism”. The “Type of Interaction” value [2, 13] was “Synergism” and the “Type of Interaction” value [2, 14] was “Synergism”.

For `CC(=O)C[Se]C(=O)c1ccc(C(C)(C)C)cc1` [K7, Se-(2-Oxopropyl) 4-(Tert-butyl)benzoselenoate], the IC50 ([1]; COLO 320, 24 h) was 2.57 µM, the “SI MRC-5/Colo 320” value [1] was 1.45 and the “SI MRC-5/B16” value (B16 (skin melanoma)) was 2.7. The “Type of Interaction” value [2, 9] was “Moderate antagonism”, the “Type of Interaction” value [2, 10] was “Antagonism” and the “Type of Interaction” value [2, 11] was “Moderate antagonism”. The “Type of Interaction” value [2, 12] was “Moderate antagonism”, the “Type of Interaction” value [2, 13] was “Antagonism” and the “Type of Interaction” value [2, 14] was “Antagonism”.

In the case of `N#CC[Se]C(=O)c1ccccc1C(F)(F)F` [N4, Se-(Cyanomethyl) 2-(Trifluoromethyl)benzoselenoate], the IC50 ([1]; COLO 320, 24 h, MTT) is reported as 5.57 µM, the “SI MRC-5/Colo 320” value [1] is reported as >6 * and the Interaction with doxorubicin [2, 3] is reported as “synergistic manner; also recorded: synergistic effect”. For the same molecule, the “Type of Interaction” value ([2]; ratio 1.2:1, starting conc. 10 µM) was “Antagonism”, the “Type of Interaction” value ([2]; ratio 2.4:1, starting conc. 10 µM) was “Strong antagonism” and the “Type of Interaction” value ([2]; ratio 4.8:1, starting conc. 10 µM) was “Moderate synergism”. The “Type of Interaction” value ([2]; ratio 9.6:1, starting conc. 10 µM) was “Additive effect”, the “Type of Interaction” value ([2]; ratio 19.2:1, starting conc. 10 µM) was “Slight antagonism” and the “Type of Interaction” value ([2]; ratio 38.4:1, starting conc. 10 µM) was “Moderate antagonism”.

With `N#CC[Se]C(=O)c1cc(C(F)(F)F)cc(C(F)(F)F)c1` [N7, Se-(Cyanomethyl) 3,5-Bis(trifluoromethyl)benzoselenoate] the IC50 ([1]; COLO 320, 24 h, MTT) was 3.78 µM, the “SI MRC-5/Colo 320” value [1] was >6 * and the Interaction with doxorubicin [2, 3] was “synergistic manner; also recorded: synergistic effect”. The “Type of Interaction” value ([2]; ratio 0.9:1, starting conc. 8 µM) was “Antagonism”, the “Type of Interaction” value ([2]; ratio 1.8:1, starting conc. 8 µM) was “Strong antagonism” and the “Type of Interaction” value ([2]; ratio 3.6:1, starting conc. 8 µM) was “Slight synergism”. The “Type of Interaction” value ([2]; ratio 7.2:1, starting conc. 8 µM) was “Antagonism”, the “Type of Interaction” value ([2]; ratio 14.4:1, starting conc. 8 µM) was “Antagonism” and the “Type of Interaction” value ([2]; ratio 28.8:1, starting conc. 8 µM) was “Additive effect”.
